What was measured:
E. coli = experiment: SEM and TEM of treated bacteria; format: cell-based, Escherichia coli; conditions: at MIC, 1 h
Method: (§1) Bacteria were grown to the mid-exponential growth phase. Silicon wafers were submerged in the bacterial solutions in the presence or absence of CAMs at their respective MICs and incubated for 1 h. 0.25% glucose was added to facilitate attachment. The bacteria on wafers were fixed in 2.5% glutaraldehyde for 1 h at room temperature, washed three times with PBS, and postfixed 1% osmium tetroxide. The samples were then dehydrated in a graded series of ethanol solutions (50%, 70%, 80%, 95%, 100%), dried with graded hexamethyldisilazane (50%, 100%), and left to air dry for two days. After drying, the wafers were mounted on stub and sputter-coated with 20 nm gold prior to inspection under microscope (Zeiss Sigma Field Emission SEM, Carl Zeiss, Ontario, Calif.) at 5 kV.
(§2) Bacteria were grown as described above for SEM sample preparation. In brief, bacteria were incubated in the presence or absence of CAMs at their respective MICs for 1 h. After centrifugation at 500×g for 10 min, the resulting pellet was fixed in 2.5% glutaraldehyde, washed three times with PBS, and postfixed with 1% osmium tetroxide. The samples were then dehydrated with graded ethanol series (50%, 70%, 80%, 95%, 100%) and embedded in epoxy resin (Dr. Spurr's kit, Electron Microscopy Sciences, Hatfield, Pa.). Ultrathin sections of the cells were stained with 1% uranyl acetate. […]

[1] = tested on: Lactobacillus plantarum ATCC 39268; experiment: MIC broth microdilution (Example 3); format: cell-based; conditions: planktonic
Method: (§3) G. vaginalis ATCC 14019 strain was grown overnight in Brain Heart Infusion broth (Difco, Sparks, Md.) supplemented with 3% horse serum (sBHI) (JRH Biosciences, KS), while BHI supplemented with 1% glucose (BHIG) was used for biofilm formation assays. Each experiment using G. vaginalis was performed anaerobically (10% hydrogen, 5% carbon dioxide, and 85% nitrogen) within anaerobic glove boxes (Coy Laboratory Products, Inc., Grass Lake, Mich., USA). Three species of vaginal Lactobacillus were used in this study to evaluate the possible harmful effects of CAms on beneficial bacteria: Lactobacillus plantarum ATCC 39268, Lactobacillus rhamnosus 160 (provided by Dr. Aroutcheva, Rush University Medical Center) and Lactobacillus gasseri ATCC 33323; all were grown for 18-24 h in DeMan, Rogosa and Sharpe broth (MRS Difco B D, Franklin Lakes, N.J., USA) under aerobic conditions at 37° C. For lactobacilli biofilm formation, MRS broth supplemented with 1% glucose and 2% sucrose (Fisher Scientific, Waltham, Mass., USA) was utilized.
(§4) To prepare a stock solution, the CAm compounds were dissolved in ddH2O and incubated at 37° C. with shaking at 250 rpm for 10 min. Then, the solution was serially diluted twofold with sBHI broth to determine the MIC and with BHIG broth to identify the MIC-B/MBC-B against planktonic and biofilm cells, respectively.
(§5) According to Clinical and Laboratory Standards Institute (CLSI 2010), the MIC is defined as the lowest concentration of antimicrobial compound producing no visible growth or complete inhibition of bacterial growth during 24 h. To determine MIC values, the broth microdilution assay was performed according to Algburi et al. (Algburi et al., 2015. Path Dis 73(5)) with minor modifications. Briefly, the overnight-grown cells were diluted with their suitable culture medium to approach ˜10^6 CFU/ml. The number of bacterial cells was identified using spot plate method (Turovskiy et al., 2012. Infect Dis Obstet Gynecol 2012:284762). The CAms were serially diluted twofold with sBHI into a non-tissue culture 96-well microplate plate (Falcon, Corning Incorporated, Corning, N.Y., USA) resulting in a final volume of 100 μl for each well. Aliquots of 100 μl of the diluted cell suspension (˜10^6 CFU/ml) were added to each well of a microplate that was treated with different concentrations of CAms. To avoid culture medium evaporation, 75 μl of mineral oil (Sigma-Aldrich, St. Louis, Mo.) was added to each treated well. The microplate was then transferred to the plate reader (Model 550, Bio-Rad Laboratories, Hercules, Calif., USA) and incubated at 37° C. for 24-36 h. The kinetic reading was statistically analyzed, and the MIC and sub-MIC of each CAm compound were determined.

[2] = tested on: Lactobacillus rhamnosus 160; experiment: MIC broth microdilution (Example 3); format: cell-based; conditions: planktonic
Method: as §3, §4, §5

[3] = tested on: Lactobacillus gasseri ATCC 33323; experiment: MIC broth microdilution (Example 3); format: cell-based; conditions: planktonic
Method: as §3, §4, §5

[4] = tested on: G. vaginalis pre-formed biofilms; experiment: MBC-B against pre-formed biofilms (Example 2); format: cell-based; conditions: pre-formed biofilm, ≥3 log reduction in viable cells
Method: (§6) The minimum biofilm bactericidal concentrations (MBC-Bs) of the cationic amphiphiles against pre-formed biofilms of L. monocytogenes and G. vaginalis were identified. The biofilms of the two targeted microorganisms were grown in 96-well plates according to established methodology for Gram-positive and Gram-variable bacteria (Tabak et al., FEMS microbiology letters. 2009; 301(1):69-76). To identify the reduction in the number of biofilm-associated viable cells treated with different concentrations of cationic amphiphiles, the spot plate method was used (Turovskiy et al., Infectious diseases in obstetrics and gynecology. 2012; 2012:284762, 9 pages). In brief, biofilms were washed, disrupted, diluted 10^1-10^8 times with fresh medium and the samples plated on suitable solid medium.

[5] = tested on: L. monocytogenes pre-formed biofilms; experiment: MBC-B against pre-formed biofilms (Example 2); format: cell-based; conditions: pre-formed biofilm, ≥3 log reduction in viable cells
Method: as §6

S. aureus = experiment: SEM and TEM of treated bacteria; format: cell-based, Staphylococcus aureus; conditions: at MIC, 1 h
Method: as §1, §2

[6] = tested on: G. vaginalis pre-formed biofilms; experiment: Biofilm removal (FIG. 5); format: cell-based; conditions: 250 μg/mL against pre-formed biofilms

| SMILES | ultrastructural changes (TEM) (E. coli) | MIC L. plantarum [1] [µM] | MIC L. rhamnosus [2] [µM] | MIC L. gasseri [3] [µM] | MBC-B G. vaginalis [4] | MBC-B, L. monocytogenes [5] | ultrastructural changes (TEM) (S. aureus) | removal of biofilm structures [6] |
| --- | --- | --- | --- | --- | --- | --- | --- | --- |
| CCCCCCCCCCOC(C(=O)NCCN)C(OCCCCCCCCCC)C(=O)NCCN.Cl.Cl (stereo not shown) [5b] | extensive ultrastructural damage | 25.7 | 13.3 | 4.4 | approximately 31.25 μg/mL | approximately 250 μg/mL | profound internal damage | up to 70% |
| CCCCCCCC(=O)OC(C(=O)NCCN)C(OC(=O)CCCCCCC)C(=O)NCCN.Cl.Cl (stereo not shown) [8a] | – | 223 | 111.6 | 55.9 | – | – | – | – |
| CCCCCCCCCC(=O)OC(C(=O)NCCN)C(OC(=O)CCCCCCCCC)C(=O)NCCN.Cl.Cl (stereo not shown) [8b] | – | 33.3 | 12.7 | 12.7 | approximately 31.25 μg/mL | approximately 250 μg/mL | – | – |

Source: patent US10759740B2, “Antibacterial agents” (Rutgers, The State University of New Jersey, priority 2016, dated 2020)
